Reference: US4683237A, “Fluoroalkyl esters of dihydrolysergic acid useful as 5HT2 receptor antagonists” (Eli Lilly and Company, priority 1985, dated 1987)
Counter-ions that a name gives are not always drawn.

Assays:
[1] = molecular target: T1, 5HT2 receptors (Rattus norvegicus, UniProt P14842); test: Antagonism of serotonin contraction in isolated rat external jugular vein (apparent antagonist dissociation constant); set-up: species or system Male Wistar rats; conditions: serotonin agonist, antagonist incubated one hour, 37° C., read-out: -log KB ± S.E. (apparent antagonist dissociation constant) (converted)
T1 construct: Contraction to serotonin was evaluated in the jugular vein since this tissue produces marked responses to serotonin in the absence of alpha receptors; from tissue; host or cells: external jugular vein of male Wistar rats
T1 sequence (P14842 whole entry): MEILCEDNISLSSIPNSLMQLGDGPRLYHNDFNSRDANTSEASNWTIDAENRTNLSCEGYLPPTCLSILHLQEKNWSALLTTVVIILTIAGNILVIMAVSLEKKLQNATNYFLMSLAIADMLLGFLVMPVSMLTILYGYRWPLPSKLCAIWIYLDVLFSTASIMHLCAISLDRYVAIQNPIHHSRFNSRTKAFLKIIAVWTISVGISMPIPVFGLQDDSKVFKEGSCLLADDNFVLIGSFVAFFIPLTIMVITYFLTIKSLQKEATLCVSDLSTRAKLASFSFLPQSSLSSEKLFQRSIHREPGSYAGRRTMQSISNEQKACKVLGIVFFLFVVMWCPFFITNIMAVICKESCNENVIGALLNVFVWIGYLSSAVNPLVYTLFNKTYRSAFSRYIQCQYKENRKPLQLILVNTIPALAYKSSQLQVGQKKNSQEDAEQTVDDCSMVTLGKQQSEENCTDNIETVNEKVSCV
Description: An initial optimum resting force of 1 and 4 g was applied to the jugular vein and aorta, respectively. […] Exp. Ther., 205, 400 (1978). Alpha receptor antagonist activity was evaluated in the aorta.
The -log KB ±S.E. value obtained for 1-fluoromehtyl-2-fluoroethyl 1-isopropyl-9,10-dihydrolysergate maleate was 8.97±0.22.

[2] = system: 5HT2 receptors; conditions: in words; mediated by 5HT2 receptors; Cohen I; cited from earlier work
[3] = system: vascular alpha adrenergic, dopaminergic and histaminergic receptors; conditions: in words; Cohen I; cited from earlier work
[4] = system: 5HT2 receptors; conditions: in words; Garbrecht compounds; cited from earlier work

`CC(C)n1cc2c3c(cccc31)[C@H]1C[C@@H](C(=O)OC(CF)CF)CN(C)[C@@H]1C2` [1-fluoromethyl-2-fluoroethyl-1-isopropyl-9,10-dihydrolysergate maleate] gave a Kb [1] of 1.07 nM.

In the case of `CC(O)C(C)OC(=O)[C@@H]1C[C@@H]2c3cccc4c3c(cn4C(C)C)C[C@H]2N(C)C1` (stereo partly drawn) [LY53857, 1-isopropyl-6-methyl-8β-(1-methyl-2-hydroxy)propoxycarbonyl-5R-ergoline], the “antagonism of vascular contraction to serotonin” value [2] is given as “potent antagonist of vascular contraction to serotonin”, the “affinity for vascular alpha adrenergic, dopaminergic and histaminergic receptors” value [3] is given as “minimal affinity” and the “peripheral serotonin antagonist activity against 5HT2 receptors” value [4] is given as “most active peripheral serotonin antagonist from Garbrecht”.
